Test results published in patent US11667667B2, “Steroid derivative FXR agonist” (Chia Tai Tianqing Pharmaceutical Group Co., Ltd., priority 2016, dated 2023).
Blank lines part the entries; values can stand above or below the compound they belong to.

How the values were obtained:
[1] = molecular target: T1, Glutathione-S-transferase-labeled FXR human protein (Homo sapiens, UniProt Q96RI1); assay: FXR biochemical experiment (AlphaScreen, coactivator recruitment); details: for EC50: AlphaScreen, GST-FXR human protein + biotin-labeled steroid receptor coactivator, read-out: FXR enzyme activity EC50; for Emax: ratio of highest signal of the compound to that of the reference compound, read-out: FXR enzyme activity Efficacy
T1 construct: purchased Invitrogen
T1 sequence (Q96RI1 1-486): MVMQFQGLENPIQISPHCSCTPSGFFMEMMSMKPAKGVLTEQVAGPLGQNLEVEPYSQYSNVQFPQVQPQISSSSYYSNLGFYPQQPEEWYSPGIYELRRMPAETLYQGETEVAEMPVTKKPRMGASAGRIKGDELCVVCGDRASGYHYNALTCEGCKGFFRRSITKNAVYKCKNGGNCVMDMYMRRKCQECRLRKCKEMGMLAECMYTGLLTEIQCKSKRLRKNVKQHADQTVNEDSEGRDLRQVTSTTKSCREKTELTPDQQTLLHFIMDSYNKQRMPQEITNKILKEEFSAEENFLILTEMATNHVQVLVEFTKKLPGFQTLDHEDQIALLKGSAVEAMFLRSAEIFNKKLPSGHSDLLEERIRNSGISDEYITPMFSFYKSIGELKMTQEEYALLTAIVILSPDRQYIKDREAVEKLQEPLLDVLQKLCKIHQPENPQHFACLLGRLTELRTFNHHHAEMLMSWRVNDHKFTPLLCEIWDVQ
Description: FXR Biochemical Experiment Experimental Purpose: The activation effect of the compound on FXR binding reaction was detected by AlphaScreen. […] Protein: Glutathione-S-transferase-labeled FXR human protein (Invitrogen) 2. Co-activator: Biotin-labeled steroid receptor coactivator (Anaspec) 3. […] Compound Dilution: The compound to be tested was prepared as a 40 μM DMSO solution, and then diluted 3-fold to 10 concentration points. The reference compound was prepared as a 400 μM DMSO solution, and then diluted 1.5-fold to 10 concentration points. The diluted DMSO solution was added to the wells of a 384-well plate in a volume of 150 nL per well. 2. […] 4. […] The operation during the experimental process was protected from light. The incubation was performed for 1 hour at room temperature. 5. […] The operation during the experimental process was protected from light. The incubation was performed for 1 hour at room temperature. 6. EC50 test: Envision was used with excitation at 680 nm to read the […] signals at 520-620 nm. 7. Analytical data: The data were analyzed via using Prism 5.0, and the EC50 values of the activation effects of the compounds were calculated.

[2] = Liver-blood ratio experiment of mice via cassette dosing; type: in vivo, mice (C57BL/6J); details: oral cassette 2 mg/kg
Description: Liver-Blood Ratio Experiment of Mice Via Cassette Dosing
6 male mice (C57BL/6J) were grouped as an oral administration group. 5 kinds of the developed drugs were contained in the formulation, and intragastrical administration was performed at a dose of 2 mg/kg/compound (the vehicle was 0.5% HPMC aqueous solution). The five compounds were firstly and respectively dissolved in the vehicle, and sonicated or whirled to form a 1 mg/mL solution (clear solution or suspension), respectively; and then the solutions of the five compound were mixed in equal volumes (1:1:1:1:1, v:v:v:v:v) into a glass bottle. After intragastrical oral administration, plasma and liver tissue samples were collected from 3 animals at 0.5 h after administration; corresponding samples were collected from the other 3 animals at 3 h after administration. After collection, the liver tissue was homogenized by using ice-cold homogenization buffer (methanol:15 mM PBS buffer (pH 7.4)=1:2, v:v) based on the ratio of liver weight:homogenization buffer volume=1:3. Plasma and liver tissue samples were analyzed by using a five-in-one LC-MS/MS analysis method developed in advance. The concentrations of plasma and liver tissue homogenate were obtained, and the concentration ratios of liver tissue to plasma were calculated by using Excel.

SMILES: CC[C@H]1[C@@H](O)[C@@H]2[C@H](CC[C@]3(C)[C@@H]([C@H](C)/C=C/c4cccc(C(=O)O)c4)CC[C@@H]23)[C@@]2(C)CC[C@@H](O)C[C@@H]12 [Example 20]
EC50 [1]: 60 nM
Emax [1]: 287%

SMILES: CC[C@H]1[C@@H](O)[C@@H]2[C@H](CC[C@]3(C)[C@@H]([C@H](C)CCOc4ccnc(C(=O)O)c4)CC[C@@H]23)[C@@]2(C)CC[C@@H](O)C[C@@H]12 [Example 41]
EC50 [1]: 80 nM
Emax [1]: 127%

SMILES: CC[C@H]1[C@@H](O)[C@@H]2[C@H](CC[C@]3(C)[C@@H]([C@H](C)CCOc4ccc(C(=O)NS(C)(=O)=O)cn4)CC[C@@H]23)[C@@]2(C)CC[C@@H](O)C[C@@H]12 [Example 27]
EC50 [1]: 6 nM
Emax [1]: 212%

SMILES: CC[C@H]1[C@@H](O)[C@@H]2[C@H](CC[C@]3(C)[C@@H]([C@H](C)CCOc4ccc(C(=O)NS(=O)(=O)C5CC5)cn4)CC[C@@H]23)[C@@]2(C)CC[C@@H](O)C[C@@H]12 [Example 28]
EC50 [1]: 7 nM
Emax [1]: 219%

SMILES: CC[C@H]1[C@@H](O)[C@@H]2[C@H](CC[C@]3(C)[C@@H]([C@H](C)CCOc4ccc(C(=O)NC)cn4)CC[C@@H]23)[C@@]2(C)CC[C@@H](O)C[C@@H]12 [Example 33]
EC50 [1]: 141 nM
Emax [1]: 194%

SMILES: CC[C@H]1[C@@H](O)[C@@H]2[C@H](CC[C@]3(C)[C@@H]([C@H](C)CCOc4ncc(C(=O)O)cc4F)CC[C@@H]23)[C@@]2(C)CC[C@@H](O)C[C@@H]12 [Example 24]
Emax [1]: 138%

SMILES: CC[C@H]1[C@@H](O)[C@@H]2[C@H](CC[C@]3(C)[C@@H]([C@H](C)CCOc4ccccc4C(=O)O)CC[C@@H]23)[C@@]2(C)CC[C@@H](O)C[C@@H]12 [Example 8]
Emax [1]: 264%

SMILES: CC[C@H]1[C@@H](O)[C@@H]2[C@H](CC[C@]3(C)[C@@H]([C@H](C)CCOc4cccnc4C(=O)O)CC[C@@H]23)[C@@]2(C)CC[C@@H](O)C[C@@H]12 [Example 16]
EC50 [1]: 310 nM
Emax [1]: 247%

SMILES: CC[C@H]1[C@@H](O)[C@@H]2[C@H](CC[C@]3(C)[C@@H]([C@H](C)CCOc4ccc(C(=O)NS(=O)(=O)c5ccccc5)cn4)CC[C@@H]23)[C@@]2(C)CC[C@@H](O)C[C@@H]12 [Example 31]
EC50 [1]: 27 nM
Emax [1]: 204%

SMILES: CC[C@H]1[C@@H](O)[C@@H]2[C@H](CC[C@]3(C)[C@@H]([C@H](C)CCOc4cnccc4C(=O)O)CC[C@@H]23)[C@@]2(C)CC[C@@H](O)C[C@@H]12 [Example 13]
EC50 [1]: 390 nM
Emax [1]: 270%

SMILES: CC[C@H]1[C@@H](O)[C@@H]2[C@H](CC[C@]3(C)[C@@H]([C@H](C)CCOc4ccc(C(=O)OC)cn4)CC[C@@H]23)[C@@]2(C)CC[C@@H](O)C[C@@H]12 [Example 44]
EC50 [1]: 330 nM
Emax [1]: 140%

SMILES: CC[C@H]1[C@@H](O)[C@@H]2[C@H](CC[C@]3(C)[C@@H]([C@H](C)CCN4CCC[C@H]4C(=O)O)CC[C@@H]23)[C@@]2(C)CC[C@@H](O)C[C@@H]12 [Example 3]
EC50 [1]: 2620 nM
Emax [1]: 106%

SMILES: CC[C@H]1[C@@H](O)[C@@H]2[C@H](CC[C@]3(C)[C@@H]([C@H](C)CCOc4cccc(C(=O)O)n4)CC[C@@H]23)[C@@]2(C)CC[C@@H](O)C[C@@H]12 [Example 25]
EC50 [1]: 11 nM
Emax [1]: 233%

SMILES: CC[C@H]1[C@@H](O)[C@@H]2[C@H](CC[C@]3(C)[C@@H]([C@H](C)CCOc4ccc(C(=O)NS(=O)(=O)C(C)(C)C)cn4)CC[C@@H]23)[C@@]2(C)CC[C@@H](O)C[C@@H]12 [Example 29]
EC50 [1]: 12 nM
Emax [1]: 190%

SMILES: CC[C@H]1[C@@H](OC)[C@@H]2[C@H](CC[C@]3(C)[C@@H]([C@H](C)CCOCC45CC(C(=O)O)(C4)C5)CC[C@@H]23)[C@@]2(C)CC[C@@H](O)C[C@@H]12 [Example 14]
EC50 [1]: 730 nM
Emax [1]: 195%

SMILES: CC[C@H]1[C@@H](O)[C@@H]2[C@H](CC[C@]3(C)[C@@H]([C@H](C)CCNc4cncc(C(=O)O)c4)CC[C@@H]23)[C@@]2(C)CC[C@@H](O)C[C@@H]12 [Example 43]
EC50 [1]: 370 nM
Emax [1]: 193%

SMILES: CC[C@H]1[C@@H](O)[C@@H]2[C@H](CC[C@]3(C)[C@@H]([C@H](C)CCOc4ccc(C(=O)NCCS(=O)(=O)O)cn4)CC[C@@H]23)[C@@]2(C)CC[C@@H](O)C[C@@H]12 [Example 38]
EC50 [1]: 20 nM
Emax [1]: 210%

SMILES: CC[C@H]1[C@@H](O)[C@@H]2[C@H](CC[C@]3(C)[C@@H]([C@H](C)CCOc4ccc(C(=O)Nc5ccccc5)cn4)CC[C@@H]23)[C@@]2(C)CC[C@@H](O)C[C@@H]12 [Example 32]
EC50 [1]: 650 nM
Emax [1]: 140%

SMILES: CC[C@H]1[C@@H](O)[C@@H]2[C@H](CC[C@]3(C)[C@@H]([C@H](C)CC(=O)Nc4cncc(C(=O)O)c4)CC[C@@H]23)[C@@]2(C)CC[C@@H](O)C[C@@H]12 [Example 42]
EC50 [1]: 1430 nM
Emax [1]: 121%

SMILES: CC[C@H]1[C@@H](O)[C@@H]2[C@H](CC[C@]3(C)[C@@H]([C@H](C)CCCOc4ccc(C(=O)O)cn4)CC[C@@H]23)[C@@]2(C)CC[C@@H](O)C[C@@H]12 [Example 18]
EC50 [1]: 70 nM
Emax [1]: 187%

SMILES: CC[C@H]1[C@@H](O)[C@@H]2[C@H](CC[C@]3(C)[C@@H]([C@H](C)CCOc4ccc(C(=O)NC5CC5)cn4)CC[C@@H]23)[C@@]2(C)CC[C@@H](O)C[C@@H]12 [Example 34]
EC50 [1]: 93 nM
Emax [1]: 191%

SMILES: CC[C@H]1[C@@H](O)[C@@H]2[C@H](CC[C@]3(C)[C@@H]([C@H](C)CCN4CCC[C@@H]4C(=O)O)CC[C@@H]23)[C@@]2(C)CC[C@@H](O)C[C@@H]12 [Example 2]
EC50 [1]: 1460 nM
Emax [1]: 114%

SMILES: CC[C@H]1[C@@H](O)[C@@H]2[C@H](CC[C@]3(C)[C@@H]([C@H](C)CCOc4cnc(C(=O)O)nc4)CC[C@@H]23)[C@@]2(C)CC[C@@H](O)C[C@@H]12 [Example 12]
EC50 [1]: 70 nM
Emax [1]: 240%

SMILES: CC[C@H]1[C@@H](O)[C@@H]2[C@H](CC[C@]3(C)[C@@H]([C@H](C)CCOc4ccc(C(=O)NS(=O)(=O)C(C)C)cn4)CC[C@@H]23)[C@@]2(C)CC[C@@H](O)C[C@@H]12 [Example 30]
EC50 [1]: 56 nM
Emax [1]: 150%

SMILES: CC[C@H]1[C@@H](O)[C@@H]2[C@H](CC[C@]3(C)[C@@H]([C@H](C)CCCOc4ncc(C(=O)O)cc4Cl)CC[C@@H]23)[C@@]2(C)CC[C@@H](O)C[C@@H]12 [Example 40]
EC50 [1]: 45 nM
Emax [1]: 197%

Concentration in liver ([2]; 0.5 h): 711 nM
Concentration in plasma ([2]; 0.5 h): 151 nM
Concentration ratio of liver to plasma ([2]; 0.5 h): 5
Concentration in liver ([2]; 3 h): 625 nM
Concentration in plasma ([2]; 3 h): 63 nM
Concentration ratio of liver to plasma ([2]; 3 h): 10
SMILES: CC[C@H]1[C@@H](O)[C@@H]2[C@H](CC[C@]3(C)[C@@H]([C@H](C)CCC(=O)O)CC[C@@H]23)[C@@]2(C)CC[C@@H](O)C[C@@H]12 [INT-747, reference compound]

SMILES: CC[C@H]1[C@@H](O)[C@@H]2[C@H](CC[C@]3(C)[C@@H]([C@H](C)CCOc4ccc(C(=O)NCC(=O)O)cn4)CC[C@@H]23)[C@@]2(C)CC[C@@H](O)C[C@@H]12 [Example 39]
EC50 [1]: 20 nM
Emax [1]: 205%
